Patent publication US8722661B2, “Pyrrolopyrimidone and pyrrolopyridone inhibitors of tankyrase” (Genentech, Inc., priority 2012, dated 2014)

Legend:
tankyrase 2 (His6-TNKS2) = target: T1, tankyrase 2 (His6-TNKS2) (Homo sapiens, UniProt Q9H2K2); test: μHTS-TNKS-IWR2 TR-FRET binding assay with His6-TNKS2 in place of TNKS1; details: Table I
T1 construct: His6-tankyrase 2 (construct: 934-1166)
Method: (§1) μHTS-TNKS-IWR2TR-FRET Binding Assay
(§2) (10 μL/well in BD1536-well plate, a single point)
(§3) Alternatively, in place of His6-TNKS1 can use either His6-tankyrase 2 (construct: 934-1166) (His6-TNKS2) or His6-PARP1 (full length).
(§4) Biotin-IWR2: 10 mM Biotin-IWR2 stock in DMSO, stored at −20° C.
Positive control: 10 mM XAV 939 in DMSO, stored at −20° C.
(§5) Prepare Biotinylated IWR2 stock solution (3.33× stock) for TOTL and cpd wells: 200 nM Biotin-IWR2 in 5% DMSO/AB1b buffer
(§6) Prepare POSITIVE CONTROL well stock solution (3.33× stock): 200 nM XAV939 in 200 nM Biotin-IWR2/5% DMSO/AB1b buffer
(§7) (Alternatively, use TNKS2 or PARP1 stock solutions.)
(§8) Prepare Eu/APC stock solution (5× stock): 3.5 nM Eu-SA/50 nM APC-His6Ab in AB2 buffer
(§9) Add 25 μL/well 1.5% DMSO/AB1c buffer in each compound well to the compound concentration at 74 μM in 8.8% DMSO/AB1c buffer or in the 2 μL DMSO CONTROL wells (BLANK, TOTAL and POSITIVE wells) in the compound plate.
(§10) Transfer 3 μL/well above solution (solution 1,2,3) to an empty assay plate (BD1536-well plate) as follows:
(§11) Transfer 3 μL/well of the above diluted compound solutions or compound dilution buffer to the above assay plate.
(§12) Add 2 μL/well of 300 nM TNKS stock solution (4) to every well in the above assay plate.
(§13) Incubate the assay plate at 26° C. for 30 minutes.
(§14) Incubate the assay plate at 26° C. for 60 minutes.
(§15) Read the assay plate immediately at excitation wavelength of 330 nm and emission wavelength of […] in time resolved fluorescence mode.
(§16) Representative compound data for assays are listed below in Table I. Values are in uM.

[1] = target: T2, PARP1 (His6-PARP1, full length) (Homo sapiens, UniProt P09874); test: μHTS-TNKS-IWR2 TR-FRET binding assay with His6-PARP1 in place of TNKS1; details: Table I
T2 construct: His6-PARP1 (full length)
Method: as §1, §2, §3, §4
Positive control: 10 mM […] in DMSO, stored at −20° C.
as §5, §6, §7, §8, §9, §10, §11, §12, §13, §14, §15, §16

Tankyrase 1 (TNKS1) = target: T3, Tankyrase 1 (TNKS1) (Homo sapiens, UniProt O95271); test: μHTS-TNKS-IWR2 TR-FRET binding assay (TNKS1)
T3 construct: construct: 1088-1327, 1266M
Method: as §1, §2
Reagents and Stock Solutions
as §4
Assay buffer 1a (AB 1a) for TNKS dilution: 50 mM Tris, pH 7.4, 100 mM sodium chloride solution, 1 mM magnesium chloride solution, 1 mM DL-dithiothreitol solution, 0.2 mg/mL bovine serum albumin solution, 0.025% NP-40.
Assay buffer 1b (AB 1b) for Biotin-IWR2 dilution: 50 mM Tris, pH 7.4, 100 mM sodium chloride solution, 1 mM magnesium chloride solution, 1 mM DL-dithiothreitol solution, 0.2 mg/mL bovine serum albumin solution, 0.05% NP-40
Assay buffer 1c (AB 1c) for compound dilution: 50 mM Tris, pH 7.4, 100 mM sodium chloride solution, 1 mM magnesium chloride solution, 1 mM DL-dithiothreitol solution, 0.2 mg/mL bovine serum albumin solution
Assay buffer 2 (AB2) for Eu/APC: 50 mM Tris, pH 7.4, 100 mM sodium chloride solution, 1 mM magnesium chloride solution, 0.2 mg/mL bovine serum albumin solution
Reagent Stock Solution Preparation
Prepare BLANK well stock solution: 5% DMSO/AB1b buffer
Prepare TNKS1 stock solution (5× stock): 300 nM TNKS in AB1a buffer
as §10
TOTL and cpd wells: Solution 1 (Biotin-IWR2):
BLNK wells: Solution 2 (No Biotin-IWR2):
POSITIVE CONTROL wells: Solution 3 (Biotin-IWR2+XAV939)
as §11, §12
Centrifuge the assay plate at 2100 rpm for 2 minutes.
as §13, §14

T1 sequence (Q9H2K2 934-1166): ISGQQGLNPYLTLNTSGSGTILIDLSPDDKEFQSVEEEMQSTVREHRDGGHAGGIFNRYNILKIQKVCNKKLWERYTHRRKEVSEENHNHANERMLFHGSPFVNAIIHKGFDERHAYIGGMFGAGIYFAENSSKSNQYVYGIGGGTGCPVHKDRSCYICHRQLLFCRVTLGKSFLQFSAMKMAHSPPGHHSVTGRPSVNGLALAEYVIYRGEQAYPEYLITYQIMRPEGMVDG
T3 sequence (O95271 1088-1327): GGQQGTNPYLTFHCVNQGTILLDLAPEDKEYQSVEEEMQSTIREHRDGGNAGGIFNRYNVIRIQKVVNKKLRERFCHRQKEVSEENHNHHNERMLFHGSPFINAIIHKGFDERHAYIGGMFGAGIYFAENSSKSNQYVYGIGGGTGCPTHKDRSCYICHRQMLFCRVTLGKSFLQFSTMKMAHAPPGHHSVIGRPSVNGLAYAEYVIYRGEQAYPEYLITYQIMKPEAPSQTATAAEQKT
T2 sequence (P09874 whole entry): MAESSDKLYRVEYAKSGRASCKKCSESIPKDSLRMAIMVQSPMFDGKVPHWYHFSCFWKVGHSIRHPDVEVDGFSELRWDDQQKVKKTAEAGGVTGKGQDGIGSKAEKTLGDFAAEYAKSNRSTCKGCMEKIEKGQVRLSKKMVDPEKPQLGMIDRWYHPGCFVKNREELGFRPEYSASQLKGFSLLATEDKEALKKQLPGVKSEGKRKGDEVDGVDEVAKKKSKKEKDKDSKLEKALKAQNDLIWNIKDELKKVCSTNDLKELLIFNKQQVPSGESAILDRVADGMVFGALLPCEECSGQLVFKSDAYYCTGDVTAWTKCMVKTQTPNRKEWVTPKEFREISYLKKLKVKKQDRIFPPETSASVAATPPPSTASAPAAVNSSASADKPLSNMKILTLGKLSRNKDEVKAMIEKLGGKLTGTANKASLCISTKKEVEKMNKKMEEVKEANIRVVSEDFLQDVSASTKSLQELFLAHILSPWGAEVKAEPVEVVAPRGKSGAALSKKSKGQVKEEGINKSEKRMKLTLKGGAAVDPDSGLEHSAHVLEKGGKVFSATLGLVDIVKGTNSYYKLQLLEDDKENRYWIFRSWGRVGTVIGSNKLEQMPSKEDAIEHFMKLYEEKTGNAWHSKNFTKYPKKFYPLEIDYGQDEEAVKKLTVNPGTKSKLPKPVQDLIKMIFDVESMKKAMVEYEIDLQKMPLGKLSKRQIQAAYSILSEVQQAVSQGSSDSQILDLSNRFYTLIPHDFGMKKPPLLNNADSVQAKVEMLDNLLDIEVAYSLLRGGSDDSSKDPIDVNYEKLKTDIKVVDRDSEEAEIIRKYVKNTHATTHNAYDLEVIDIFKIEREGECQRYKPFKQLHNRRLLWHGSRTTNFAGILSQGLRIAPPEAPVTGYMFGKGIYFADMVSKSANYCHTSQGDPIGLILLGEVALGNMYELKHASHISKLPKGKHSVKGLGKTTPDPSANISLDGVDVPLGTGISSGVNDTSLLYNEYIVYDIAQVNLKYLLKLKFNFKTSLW

IC50 (tankyrase 2 (His6-TNKS2)) [µM]	IC50 [1] [µM]	IC50 (Tankyrase 1 (TNKS1)) [µM]	SMILES
0.2	0.557	0.292	Cn1ccc2c(=O)[nH]c(N3CCN(c4cc(C(F)(F)F)ccn4)CC3)nc21 [Example 25, 7-Methyl-2-[4-(4-trifluoromethyl-pyridin-2-yl)-piperazin-1-yl]-3,7-dihydro-pyrrolo[2,3-d]pyrimidin-4-one]
0.153	1.25	0.204	Cn1ccc2c(=O)[nH]c(N3CCN(c4ccc(Cl)c(Cl)c4)CC3)nc21 [Example 26, 2-[4-(3,4-Dichloro-phenyl)-piperazin-1-yl]-7-methyl-3,7-dihydro-pyrrolo[2,3-d]pyrimidin-4-one]
6.79	> 50	5.67	C=CCCn1ccc2c(=O)[nH]c(N3CCN(c4ccccc4Cl)CC3)nc21 [Example 27, 7-But-3-enyl-2-[4-(2-chloro-phenyl)-piperazin-1-yl]-3,7-dihydro-pyrrolo[2,3-d]pyrimidin-4-one]
0.08	3.28	0.04	Cn1ccc2c(=O)[nH]c(N3CCN(c4ccccc4F)CC3)nc21 [Example 28, 2-[4-(2-Fluoro-phenyl)-piperazin-1-yl]-7-methyl-3,7-dihydro-pyrrolo[2,3-d]pyrimidin-4-one]
0.045	0.732	0.043	Cn1ccc2c(=O)[nH]c(N3CCN(c4ccccc4)CC3)nc21 [Example 29, 7-Methyl-2-(4-phenyl-piperazin-1-yl)-3,7-dihydro-pyrrolo[2,3-d]pyrimidin-4-one]
0.033	1.4	0.031	Cn1ccc2c(=O)[nH]c(N3CCN(c4ccccc4Cl)CC3)nc21 [Example 30, 2-[4-(2-Chloro-phenyl)-piperazin-1-yl]-7-methyl-3,7-dihydro-pyrrolo[2,3-d]pyrimidin-4-one]
0.133	0.318	0.155	Cn1ccc2c(=O)[nH]c(N3CCN(c4cnccn4)CC3)nc21 [Example 31, 7-Methyl-2-(2,3,5,6-tetrahydro-[1,2′]bipyrazinyl-4-yl)-3,7-dihydro-pyrrolo[2,3-d]pyrimidin-4-one]
0.09	0.229	0.129	Cn1ccc2c(=O)[nH]c(N3CCN(c4ccc(C#N)cn4)CC3)nc21 [Example 32, 6-[4-(7-Methyl-4-oxo-4,7-dihydro-3H-pyrrolo[2,3-d]pyrimidin-2-yl)-piperazin-1-yl]-nicotinonitrile]
6.08	1.12	6.18	Cn1ccc2c(=O)[nH]c(N3C[C@@H]4C[C@H]3CN4c3cccc(F)c3)nc21 [Example 33, 2-[(1S,4S)-5-(3-Fluoro-phenyl)-2,5-diaza-bicyclo[2.2.1]hept-2-yl]-7-methyl-3,7-dihydro-pyrrolo[2,3-d]pyrimidin-4-one]
0.024	1.37	0.025	Cn1ccc2c(=O)[nH]c(N3CCN(c4c(Cl)cncc4Cl)CC3)nc21 [Example 34, 2-[4-(3,5-Dichloro-pyridin-4-yl)-piperazin-1-yl]-7-methyl-3,7-dihydro-pyrrolo[2,3-d]pyrimidin-4-one]
0.059	1.63	0.051	Cn1ccc2c(=O)[nH]c(N3CCN(c4ccccc4F)CC3)cc21 [Example 35, 6-[4-(2-Fluoro-phenyl)-piperazin-1-yl]-1-methyl-1,5-dihydro-pyrrolo[3,2-c]pyridin-4-one]
0.251	21	0.273	CCn1ccc2c(=O)[nH]c(N3CCN(c4ccccc4F)CC3)cc21 [Example 36, 1-Ethyl-6-[4-(2-fluoro-phenyl)-piperazin-1-yl]-1,5-dihydro-pyrrolo[3,2-c]pyridin-4-one]
0.217	1.13	0.11	O=c1[nH]c(-c2ccc(C(F)(F)F)cc2)nc2[nH]ccc12 [Example 37, 2-(4-Trifluoromethyl-phenyl)-3,7-dihydro-pyrrolo[2,3-d]pyrimidin-4-one]
0.045	0.785	0.038	Cn1ccc2c(=O)[nH]c(-c3ccc(C(F)(F)F)cc3)nc21 [Example 38, 7-Methyl-2-(4-trifluoromethyl-phenyl)-3,7-dihydro-pyrrolo[2,3-d]pyrimidin-4-one]
0.058	0.854	0.054	COc1ccc(-c2nc3c(ccn3C)c(=O)[nH]2)cc1 [Example 39, 2-(4-Methoxy-phenyl)-7-methyl-3,7-dihydro-pyrrolo[2,3-d]pyrimidin-4-one]
0.109	0.289	0.117	CCOc1ccc(-c2nc3c(ccn3C)c(=O)[nH]2)cn1 [Example 40, 2-(6-Ethoxy-pyridin-3-yl)-7-methyl-3,7-dihydro-pyrrolo[2,3-d]pyrimidin-4-one]
0.568	0.307	0.764	Cn1ccc2c(=O)[nH]c(-c3cccnc3)nc21 [Example 41, 7-Methyl-2-pyridin-3-yl-3,7-dihydro-pyrrolo[2,3-d]pyrimidin-4-one]
0.235	0.166	0.228	Cc1ccc(-c2nc3c(ccn3C)c(=O)[nH]2)cn1 [Example 42, 7-Methyl-2-(6-methyl-pyridin-3-yl)-3,7-dihydro-pyrrolo[2,3-d]pyrimidin-4-one]
0.143	1.18	0.11	Cn1ccc2c(=O)[nH]c(-c3ccc(C#N)cc3)nc21 [Example 43, 4-(7-Methyl-4-oxo-4,7-dihydro-3H-pyrrolo[2,3-d]pyrimidin-2-yl)-benzonitrile]
0.084	0.0933	0.088	Cn1ccc2c(=O)[nH]c(-c3ccc(C(F)(F)F)nc3)nc21 [Example 44, 7-Methyl-2-(6-trifluoromethyl-pyridin-3-yl)-3,7-dihydro-pyrrolo[2,3-d]pyrimidin-4-one]
0.039	0.842	0.04	Cn1ccc2c(=O)[nH]c(-c3ccc(C(F)(F)F)cc3)cc21 [Example 45, 1-Methyl-6-(4-trifluoromethyl-phenyl)-1,5-dihydro-pyrrolo[3,2-c]pyridin-4-one]
0.132	> 50	0.123	CCn1ccc2c(=O)[nH]c(-c3ccc(C(F)(F)F)cc3)cc21 [Example 46, 1-Ethyl-6-(4-trifluoromethyl-phenyl)-1,5-dihydro-pyrrolo[3,2-c]pyridin-4-one]
0.135	0.292	0.164	Cn1cc(-c2cc3c(ccn3C)c(=O)[nH]2)cn1 [Example 47, 1-Methyl-6-(1-methyl-1H-pyrazol-4-yl)-1,5-dihydro-pyrrolo[3,2-c]pyridin-4-one]
0.043	4.7	0.043	Cn1ccc2c(=O)[nH]c(N3CCC(c4ccc(F)cc4)CC3)nc21 [Example 48, 2-[4-(4-Fluoro-phenyl)-piperidin-1-yl]-7-methyl-3,7-dihydro-pyrrolo[2,3-d]pyrimidin-4-one]
1.36	> 50	1.28	C=CCCn1ccc2c(=O)[nH]c(-c3ccc(C(F)(F)F)cc3)nc21 [Example 49, 7-But-3-enyl-2-(4-trifluoromethyl-phenyl)-3,7-dihydro-pyrrolo[2,3-d]pyrimidin-4-one]
